Patent US20230203095A1, “BIOLOGICAL PEPTIDE FOR TREATING LUNG DISEASES AND APPLICATION THEREOF” (SHANGHAI INSTITUTE OF PHARMACEUTICAL INDUSTRY CO., LTD., priority 2019, published 2023)
Square brackets hold non-standard residues; d marks the D form. Peptide text beside a SMILES is read from it.

Assays:
[1] = test system: OVA-induced asthma model mice; assay: Lung pathology (H&E) of OVA-induced asthma model mice; assay type: in vivo, BALB/c mice; conditions: after 28 days
Experimental: (§1) The first batch: mice were divided into groups, 10 mice in each group, namely: blank control group (normal saline), model group (OVA, 20 ug/mouse), SP peptide group (administered dose of 175 µg/kg body weight/day, 350 µg/kg body weight/day, respectively), SIPI-D00 peptide group (administered dose of 175 µg/kg body weight/day, 350 µg/kg body weight/day), and dexamethasone group (administered dose of 2 mg/kg body weight/day).
(§2) Mice in the model group, SP peptide group, SIPI-D00 peptide group and dexamethasone group were sensitized by intraperitoneal injection of OVA (20 µg OVA/mice) on day 0, 7, and 14, and challenged by aerosol administration of OVA (once a day for 5 consecutive days) on day 21-25 to construct asthmatic model animals. Mice in the model group were given normal saline on days 21-28; mice in different doses of SP peptide group and SIPI-D00 peptide group were injected subcutaneously with different doses of SP and SIPI-D00 on days 19-28; mice in dexamethasone group were injected intraperitoneally with 2 mg/kg/day dexamethasone on days 21-28. At the same time, 10 mice in the blank control group were fed normally from day 0 to day 28 without any treatment, and were given normal saline as a blank control.
After 28 days, the mouse lung tissue was taken out, fixed in 4% formaldehyde, embedded in paraffin, sectioned, and stained with H&E for pathological observation.
The first batch: mice were divided into groups, 10 mice in each group, namely: blank control group (normal saline), model group (OVA, 20 ug/mice), and SP peptide group (administered dose of 175 µg/kg body weight/day, 350 µg/kg body weight/day, respectively), SIPI-G5 peptide group (administered dose of 175 µg/kg body weight/day, 350 µg/kg body weight/day), dexamethasone group (administered dose of 2 mg/kg body weight/day).
(§3) At the same time, 10 mice in the blank control group were fed normally from day 0 to day 28 without any treatment, and were given normal saline as a blank control.

[2] = Plasma drug concentrations and pharmacokinetics after a single subcutaneous injection of SP peptide or SIPI-D00 peptide in SD rats; assay type: in vivo
Experimental: Route: Single back subcutaneous injection;
Dosage of the drug: SP peptide and SIPI-D00 peptide were prepared into 3.33 mg/mL solution with normal saline, the dosage of SP peptide by back subcutaneous injection was 10 mg/kg body weight, and the dosage of SIPI-D00 peptide by back subcutaneous injection was 5 mg/kg body weight. […]

[3] = test system: serum IgE; assay: Serum IgE level in OVA-induced allergic asthma model mice; assay type: in vivo, BALB/c mice; conditions: for Serum IgE level (OD450): days 19-28, n=10
Experimental: as §1
OVA for sensitization was dissolved in sterile PBS solution at a final concentration of 0.2 mg/mL, then an equal volume of aluminum hydroxide adjuvant was added. After shaking for 30 minutes, each mouse was intraperitoneally injected with 0.2 mL (20 µg OVA per mouse).
2% OVA solution was prepared in sterile PBS. The 2% OVA was nebulized with a nebulizer, and the mice were placed in the nebulizer inhalation box for 30 minutes per day.
According to the dosage, SP peptide and SIPI-D00 were dissolved in normal saline respectively, and administered by subcutaneous administration on the back according to the body weight of the animals.
as §2
After 28 days, blood was collected from the inner canthus of the mouse, and the serum was collected, and the IgE level in the serum was measured with an ELISA kit. […]
as §3

Compound: C[C@H](O)[C@@H](NC(=O)[C@@H](Cc1ccc(O)cc1)NC(=O)[C@H](NC(=O)[C@@H](CO)NC(=O)CN)[C@H](C)O)C(=O)N[C@H](CCC(N)=O)C(=O)NCC(=O)O [SIPI-D00, GSTYTQG] (H-G[dS][dT][dY][dT][dQ]G-OH)
- lung pathology, H&E ([1]; high-dose group (350 µg/kg body weight/day)): less inflammatory cell infiltration and clear alveolar cavity
- lung pathology, H&E ([1]; low-dose group (175 µg/kg body weight/day)): more inflammatory cells infiltrating in the lungs
- infiltration of inflammatory cells in the lungs, H&E ([1]; overall): significantly reduce the infiltration of inflammatory cells
- Plasma concentration ([2]; SIPI-D00 5 mg/kg s.c., SD rats, time 0 h, parallels 1-4): 0 µg/mL
- Plasma concentration ([2]; SIPI-D00 5 mg/kg s.c., SD rats, time 0.1 h, parallels 1-4, 5 mg/kg): 5.167 µg/mL
- Plasma concentration ([2]; SIPI-D00 5 mg/kg s.c., SD rats, time 0.333 h, parallels 1-4, 5 mg/kg): 5.836 µg/mL
- Plasma concentration ([2]; SIPI-D00 5 mg/kg s.c., SD rats, time 0.667 h, parallels 1-4, 5 mg/kg): 5.242 µg/mL
- Plasma concentration ([2]; SIPI-D00 5 mg/kg s.c., SD rats, time 2 h, parallels 1-4, 5 mg/kg): 1.185 µg/mL
- Fa ([2]; SIPI-D00 5 mg/kg single subcutaneous injection, SD rats, Mean±SD): 96.3±13.3%
- level at 0.1 h ([2]; male, SD, rat, plasma, sc, 5 mg/kg, SIPI-D00 5 mg/kg s.c., SD rats, time 0.1 h, parallels 1-4, read-out: Plasma concentration): 3.58 µg/mL
- level at 0.167 h ([2]; male, SD, rat, plasma, sc, 5 mg/kg, SIPI-D00 5 mg/kg s.c., SD rats, time 0.167 h, parallels 1-4, read-out: Plasma concentration): 4.71 µg/mL
- level at 0.333 h ([2]; male, SD, rat, plasma, sc, 5 mg/kg, SIPI-D00 5 mg/kg s.c., SD rats, time 0.333 h, parallels 1-4, read-out: Plasma concentration): 5.89 µg/mL
- level at 0.667 h ([2]; male, SD, rat, plasma, sc, 5 mg/kg, SIPI-D00 5 mg/kg s.c., SD rats, time 0.667 h, parallels 1-4, read-out: Plasma concentration): 5.26 µg/mL
- level at 1 h ([2]; male, SD, rat, plasma, sc, 5 mg/kg, SIPI-D00 5 mg/kg s.c., SD rats, time 1 h, parallels 1-4, read-out: Plasma concentration): 3.95 µg/mL
- level at 2 h ([2]; male, SD, rat, plasma, sc, 5 mg/kg, SIPI-D00 5 mg/kg s.c., SD rats, time 2 h, parallels 1-4, read-out: Plasma concentration): 1.16 µg/mL
- level at 3 h ([2]; male, SD, rat, plasma, sc, 5 mg/kg, SIPI-D00 5 mg/kg s.c., SD rats, time 3 h, parallels 1-4, read-out: Plasma concentration): 0.291 µg/mL
- level at 4 h ([2]; male, SD, rat, plasma, sc, 5 mg/kg, SIPI-D00 5 mg/kg s.c., SD rats, time 4 h, parallels 1-4, read-out: Plasma concentration): 0.0535 µg/mL
- level at 6 h ([2]; male, SD, rat, plasma, sc, 5 mg/kg, SIPI-D00 5 mg/kg s.c., SD rats, time 6 h, parallels 1-4, read-out: Plasma concentration): 0.00351 µg/mL
- AUC compared with SP ([2]; rat, in vivo, sc): significantly improved compared with SP
- AUC(0-t) ([2]; rat, in vivo, sc, 5 mg/kg): 8.82 ± 1.32 µg·h/mL
- Cmax ([2]; rat, in vivo, sc, 5 mg/kg): 5.91 ± 0.447 µg/mL
- MRT last ([2]; rat, in vivo, sc, 5 mg/kg): 57.8 ± 1.14 min
- Tmax ([2]; rat, in vivo, sc, 5 mg/kg): 12.5 ± 4.98 min
- half-life ([2]; rat, in vivo, sc, 5 mg/kg): 90 min
- Serum IgE level (OD450) ([3]; 175 ug/kg/day subcutaneous): 0.421 ± 0.044 OD450
- Serum IgE level (OD450) ([3]; 350 ug/kg/day subcutaneous): 0.279 ± 0.036 OD450
- IgE level in the serum (in words) ([3]; compared with the model group and SP peptide group): significantly decreased
